Source: ChEMBL document CHEMBL1240393, “Full Resistance and decreased susceptibility to carbapenems in IMP-13-producing Pseudomonas aeruginosa isolates from an outbreak” (2010)
Values after ≈ are worked out from the molar mass of the structure shown.

What was measured:
[1] = tested on: Pseudomonas aeruginosa; test: Antibacterial activity against beta-lactamase IMP-13 producing Pseudomonas aeruginosa isolate 15 assessed as zone of inhibition by disk diffusion assay; format: functional
[2] = tested on: Pseudomonas aeruginosa; test: Antibacterial activity against beta-lactamase IMP-13 producing Pseudomonas aeruginosa isolate 7; format: functional
[3] = tested on: Pseudomonas aeruginosa; test: Antibacterial activity against beta-lactamase IMP-13 producing Pseudomonas aeruginosa isolate 9 assessed as zone of inhibition by disk diffusion assay; format: functional
[4] = tested on: Pseudomonas aeruginosa; test: Antibacterial activity against beta-lactamase IMP-13 producing Pseudomonas aeruginosa isolate 1 assessed as zone of inhibition by disk diffusion assay; format: functional
[5] = tested on: Pseudomonas aeruginosa; test: Antibacterial activity against beta-lactamase IMP-13 producing Pseudomonas aeruginosa isolate 15; format: functional
[6] = tested on: Pseudomonas aeruginosa; test: Antibacterial activity against beta-lactamase IMP-13 producing Pseudomonas aeruginosa isolate 13 assessed as zone of inhibition by disk diffusion assay; format: functional
[7] = tested on: Pseudomonas aeruginosa; test: Antibacterial activity against beta-lactamase IMP-13 producing Pseudomonas aeruginosa isolate 16 assessed as zone of inhibition by disk diffusion assay; format: functional
[8] = tested on: Pseudomonas aeruginosa; test: Antibacterial activity against beta-lactamase IMP-13 producing Pseudomonas aeruginosa isolate 10 assessed as zone of inhibition by disk diffusion assay; format: functional
[9] = tested on: Pseudomonas aeruginosa; test: Antibacterial activity against beta-lactamase IMP-13 producing Pseudomonas aeruginosa isolate 5; format: functional
[10] = tested on: Pseudomonas aeruginosa; test: Antibacterial activity against beta-lactamase IMP-13 producing Pseudomonas aeruginosa isolate 13; format: functional
[11] = tested on: Pseudomonas aeruginosa; test: Antibacterial activity against beta-lactamase IMP-13 producing Pseudomonas aeruginosa isolate 17 assessed as zone of inhibition by disk diffusion assay; format: functional
[12] = tested on: Pseudomonas aeruginosa; test: Antibacterial activity against beta-lactamase IMP-13 producing Pseudomonas aeruginosa isolate 3; format: functional
[13] = tested on: Pseudomonas aeruginosa; test: Antibacterial activity against beta-lactamase IMP-13 producing Pseudomonas aeruginosa isolate 11 assessed as zone of inhibition by disk diffusion assay; format: functional
[14] = tested on: Pseudomonas aeruginosa; test: Antibacterial activity against beta-lactamase IMP-13 producing Pseudomonas aeruginosa isolate 4; format: functional
[15] = tested on: Pseudomonas aeruginosa; test: Antibacterial activity against beta-lactamase IMP-13 producing Pseudomonas aeruginosa isolate 2; format: functional
[16] = tested on: Pseudomonas aeruginosa; test: Antibacterial activity against beta-lactamase IMP-13 producing Pseudomonas aeruginosa isolate 2 assessed as zone of inhibition by disk diffusion assay; format: functional
[17] = tested on: Pseudomonas aeruginosa; test: Antibacterial activity against beta-lactamase IMP-13 producing Pseudomonas aeruginosa isolate 7 assessed as zone of inhibition by disk diffusion assay; format: functional
[18] = tested on: Pseudomonas aeruginosa; test: Antibacterial activity against beta-lactamase IMP-13 producing Pseudomonas aeruginosa isolate 12 assessed as zone of inhibition by disk diffusion assay; format: functional
[19] = tested on: Pseudomonas aeruginosa; test: Antibacterial activity against beta-lactamase IMP-13 producing Pseudomonas aeruginosa isolate 6
[20] = tested on: Pseudomonas aeruginosa; test: Antibacterial activity against beta-lactamase IMP-13 producing Pseudomonas aeruginosa isolate 10; format: functional
[21] = tested on: Pseudomonas aeruginosa; test: Antibacterial activity against beta-lactamase IMP-13 producing Pseudomonas aeruginosa isolate 6 assessed as zone of inhibition by disk diffusion assay; format: functional
[22] = tested on: Pseudomonas aeruginosa; test: Antibacterial activity against beta-lactamase IMP-13 producing Pseudomonas aeruginosa isolate 16; format: functional
[23] = tested on: Pseudomonas aeruginosa; test: Antibacterial activity against beta-lactamase IMP-13 producing Pseudomonas aeruginosa isolate 14; format: functional
[24] = tested on: Pseudomonas aeruginosa; test: Antibacterial activity against beta-lactamase IMP-13 producing Pseudomonas aeruginosa isolate 1; format: functional
[25] = tested on: Pseudomonas aeruginosa; test: Antibacterial activity against beta-lactamase IMP-13 producing Pseudomonas aeruginosa isolate 18 assessed as zone of inhibition by disk diffusion assay; format: functional
[26] = tested on: Pseudomonas aeruginosa; test: Antibacterial activity against beta-lactamase IMP-13 producing Pseudomonas aeruginosa isolate 17
[27] = tested on: Pseudomonas aeruginosa; test: Antibacterial activity against beta-lactamase IMP-13 producing Pseudomonas aeruginosa isolate 8; format: functional
[28] = tested on: Pseudomonas aeruginosa; test: Antibacterial activity against beta-lactamase IMP-13 producing Pseudomonas aeruginosa isolate 5 assessed as zone of inhibition by disk diffusion assay; format: functional
[29] = tested on: Pseudomonas aeruginosa; test: Antibacterial activity against beta-lactamase IMP-13 producing Pseudomonas aeruginosa isolate 11; format: functional
[30] = tested on: Pseudomonas aeruginosa; test: Antibacterial activity against beta-lactamase IMP-13 producing Pseudomonas aeruginosa isolate 8 assessed as zone of inhibition by disk diffusion assay; format: functional
[31] = tested on: Pseudomonas aeruginosa; test: Antibacterial activity against beta-lactamase IMP-13 producing Pseudomonas aeruginosa isolate 3 assessed as zone of inhibition by disk diffusion assay; format: functional
[32] = tested on: Pseudomonas aeruginosa; test: Antibacterial activity against beta-lactamase IMP-13 producing Pseudomonas aeruginosa isolate 18
[33] = tested on: Pseudomonas aeruginosa; test: Antibacterial activity against beta-lactamase IMP-13 producing Pseudomonas aeruginosa isolate 4 assessed as zone of inhibition by disk diffusion assay; format: functional
[34] = tested on: Pseudomonas aeruginosa; test: Antibacterial activity against beta-lactamase IMP-13 producing Pseudomonas aeruginosa isolate 12; format: functional
[35] = tested on: Pseudomonas aeruginosa; test: Antibacterial activity against beta-lactamase IMP-13 producing Pseudomonas aeruginosa isolate 14 assessed as zone of inhibition by disk diffusion assay; format: functional
[36] = tested on: Pseudomonas aeruginosa; test: Antibacterial activity against beta-lactamase IMP-13 producing Pseudomonas aeruginosa isolate 9

Structure (SMILES)	inhibition zone (IZ) [1] [mm]	MIC [2] [µg/mL]	inhibition zone (IZ) [3] [mm]	inhibition zone (IZ) [4] [mm]	MIC [5] [µg/mL]	inhibition zone (IZ) [6] [mm]	inhibition zone (IZ) [7] [mm]	inhibition zone (IZ) [8] [mm]	MIC [9] [µg/mL]	MIC [10] [µg/mL]	inhibition zone (IZ) [11] [mm]	MIC [12] [µg/mL]	inhibition zone (IZ) [13] [mm]	MIC [14] [µg/mL]	MIC [15] [µg/mL]	inhibition zone (IZ) [16] [mm]	inhibition zone (IZ) [17] [mm]	inhibition zone (IZ) [18] [mm]	MIC [19] [µg/mL]	MIC [20] [µg/mL]	other results
C[C@@H](O)[C@H]1C(=O)N2C(C(=O)O)=C(SCCNC=N)C[C@H]12 [IMIPENEM ANHYDROUS]	7	2 (≈ 6.68 µM)	18	20	32 (≈ 107 µM)	6	6	21	2 (≈ 6.68 µM)	32 (≈ 107 µM)	20	2 (≈ 6.68 µM)	21	2 (≈ 6.68 µM)	2 (≈ 6.68 µM)	21	21	18	2 (≈ 6.68 µM)	2 (≈ 6.68 µM)	inhibition zone (IZ) [21]: 20 mm; MIC [22]: 32 µg/mL (≈ 107 µM); MIC [23]: 32 µg/mL (≈ 107 µM); MIC [24]: 4 µg/mL (≈ 13.4 µM); inhibition zone (IZ) [25]: 21 mm; MIC [26]: 2 µg/mL (≈ 6.68 µM); MIC [27]: 2 µg/mL (≈ 6.68 µM); inhibition zone (IZ) [28]: 21 mm; MIC [29]: 2 µg/mL (≈ 6.68 µM); inhibition zone (IZ) [30]: 21 mm; inhibition zone (IZ) [31]: 20 mm; MIC [32]: 2 µg/mL (≈ 6.68 µM); inhibition zone (IZ) [33]: 21 mm; MIC [34]: 4 µg/mL (≈ 13.4 µM); inhibition zone (IZ) [35]: 6 mm; MIC [36]: 2 µg/mL (≈ 6.68 µM)
C[C@@H](O)[C@H]1C(=O)N2C(C(=O)O)=C(S[C@@H]3CN[C@H](C(=O)N(C)C)C3)[C@H](C)[C@H]12 [MEROPENEM]	6	4 (≈ 10.4 µM)	19	18	128 (≈ 334 µM)	6	6	20	4 (≈ 10.4 µM)	128 (≈ 334 µM)	20	4 (≈ 10.4 µM)	19	4 (≈ 10.4 µM)	4 (≈ 10.4 µM)	17	17	17	2 (≈ 5.22 µM)	4 (≈ 10.4 µM)	inhibition zone (IZ) [21]: 16 mm; MIC [22]: 128 µg/mL (≈ 334 µM); MIC [23]: 128 µg/mL (≈ 334 µM); MIC [24]: 4 µg/mL (≈ 10.4 µM); inhibition zone (IZ) [25]: 21 mm; MIC [26]: 2 µg/mL (≈ 5.22 µM); MIC [27]: 4 µg/mL (≈ 10.4 µM); inhibition zone (IZ) [28]: 17 mm; MIC [29]: 4 µg/mL (≈ 10.4 µM); inhibition zone (IZ) [30]: 21 mm; inhibition zone (IZ) [31]: 16 mm; MIC [32]: 2 µg/mL (≈ 5.22 µM); inhibition zone (IZ) [33]: 21 mm; MIC [34]: 8 µg/mL (≈ 20.9 µM); inhibition zone (IZ) [35]: 6 mm; MIC [36]: 2 µg/mL (≈ 5.22 µM)
